# Assay results as given in ChEMBL document CHEMBL5136993, “Identification of potent α-amylase inhibitors via dynamic combinatorial chemistry” (Bioorg Med Chem, 2022).
# How the values were obtained:
# Alpha amylase [1] = target: T1, Alpha amylase (Homo sapiens, UniProt P0DUB6); assay: Competitive inhibition of human saliva alpha-amylase assessed as inhibition constant using starch as substrate preincubated for 15 mins followed by substrate addition and measured after 15 mins by dixon plot analysis; type: tissue-based
# T1 sequence (P0DUB6 whole entry): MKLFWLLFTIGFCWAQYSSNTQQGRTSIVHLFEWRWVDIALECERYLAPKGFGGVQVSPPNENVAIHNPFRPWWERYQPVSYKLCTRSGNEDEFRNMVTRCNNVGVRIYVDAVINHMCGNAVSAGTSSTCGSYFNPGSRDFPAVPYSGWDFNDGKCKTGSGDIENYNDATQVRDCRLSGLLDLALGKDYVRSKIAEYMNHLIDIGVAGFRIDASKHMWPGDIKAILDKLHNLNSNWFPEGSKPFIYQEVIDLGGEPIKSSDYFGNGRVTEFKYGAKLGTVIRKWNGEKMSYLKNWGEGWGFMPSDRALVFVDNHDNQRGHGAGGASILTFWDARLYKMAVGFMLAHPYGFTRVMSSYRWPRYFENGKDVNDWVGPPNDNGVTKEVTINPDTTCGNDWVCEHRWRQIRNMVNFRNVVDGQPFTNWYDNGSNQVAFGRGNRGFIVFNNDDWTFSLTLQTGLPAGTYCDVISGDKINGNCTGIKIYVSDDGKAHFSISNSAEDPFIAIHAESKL
# Alpha amylase [2] = target: T1, Alpha amylase; assay: Inhibition of human saliva alpha-amylase using starch as substrate preincubated for 15 mins followed by substrate addition and measured after 15 mins
# [3] = Cytotoxicity against HEK293 cells assessed as reduction in cell growth incubated for 12 hrs by CCK-8 assay; type: toxicity, cell-based; conditions: human
# [4] = system: O=C(N/N=C/c1coc2cc(Br)ccc2c1=O)c1nc(-c2cccc(Br)c2)cs1; assay: Competitive inhibition of human saliva alpha-amylase assessed as Km using starch as substrate preincubated for 15 mins followed by substrate addition and measured after 15 mins by Lineweaver-Burk plot analysis; conditions: time 30.0 min
Ki (Alpha amylase [1]),IC50 (Alpha amylase [2]),Molecule,CC50 at 12 h [3],Km [4]
5.4 µM,4.46 µM,O=C(N/N=C/c1coc2cc(Br)ccc2c1=O)c1nc(-c2cccc(Br)c2)cs1,> 100 µM,
,19 µM,Cc1ccc2occ(/C=N/NC(=O)c3nc(-c4ccc(F)cc4)cs3)c(=O)c2c1,,
,,Alpha amylase (Homo sapiens) (from UniProt P0DUB6),,2140 µM
,6.1 µM,O=C(N/N=C/c1coc2cc(Br)ccc2c1=O)c1nc(-c2ccc(Cl)cc2)cs1,68 µM,
